Results published in patent US7442833B2, “Triphenylethylene compounds as selective estrogen receptor modulators” (SmithKline Beecham Corporation, priority 2003, dated 2008).
Converted amounts (≈) assume the structure as drawn. “And” between values parts separate entries of the source, which are not always exact repeats. Equal entries are not always repeated. Structures can show the parent of a compound that is named as a salt.

Columns and labels:
[1] = Rat oral pharmacokinetics: bioavailability of compound 1; type: in vivo, female CD (Charles River Sprague Dawley) rats; conditions: for Bioavailability of 1 in Rat (% F): Table I; for Bioavailability of 1 in Rat: Table II
Method: In order to study the pharmacokinetic behavior of the prodrugs of this invention, a single oral dose of a series of prodrugs as well as compound 1 was administered to female CD (Charles River Sprague Dawley) rats. Rats received each compound by oral gavage at a dose of 10 mg/kg. […]

[2] = Equilibrium solubility in fasted state simulated intestinal fluid (SIF); type: physicochemical; conditions: fassif, thermodynamic from solid, pH = 6.8
Description: Traditionally, prodrugs have often been used to increase the bioavailability of a drug via improvement of prodrug solubility by attaching a water-soluble moiety (the “progroup”) to a poorly water soluble parent drug (D. Fleisher, Adv. Drug Del. Rev. (1996) 19, 115-130, incorporated herein by reference).

[3] = molecular target: estrogen receptor subtype alpha (Homo sapiens, UniProt P03372); conditions: relative to estradiol; reported by Weatherman, Chem. and Biol. (2001) 8, 427-436; cited from earlier work
[4] = molecular target: estrogen receptor subtype beta (Homo sapiens, UniProt Q92731); conditions: relative to estradiol; reported by Weatherman, Chem. and Biol. (2001) 8, 427-436; cited from earlier work
[5] = single oral gavage 10 mg/kg, suspension in aqueous 0.5% HPMC and 0.1% polysorbate 80 (Tween 80)
[6] = oral, suspension in aqueous 0.5% HPMC and 0.1% polysorbate 80 (Tween 80)

estrogen receptor subtype alpha, sequence (P03372 whole entry): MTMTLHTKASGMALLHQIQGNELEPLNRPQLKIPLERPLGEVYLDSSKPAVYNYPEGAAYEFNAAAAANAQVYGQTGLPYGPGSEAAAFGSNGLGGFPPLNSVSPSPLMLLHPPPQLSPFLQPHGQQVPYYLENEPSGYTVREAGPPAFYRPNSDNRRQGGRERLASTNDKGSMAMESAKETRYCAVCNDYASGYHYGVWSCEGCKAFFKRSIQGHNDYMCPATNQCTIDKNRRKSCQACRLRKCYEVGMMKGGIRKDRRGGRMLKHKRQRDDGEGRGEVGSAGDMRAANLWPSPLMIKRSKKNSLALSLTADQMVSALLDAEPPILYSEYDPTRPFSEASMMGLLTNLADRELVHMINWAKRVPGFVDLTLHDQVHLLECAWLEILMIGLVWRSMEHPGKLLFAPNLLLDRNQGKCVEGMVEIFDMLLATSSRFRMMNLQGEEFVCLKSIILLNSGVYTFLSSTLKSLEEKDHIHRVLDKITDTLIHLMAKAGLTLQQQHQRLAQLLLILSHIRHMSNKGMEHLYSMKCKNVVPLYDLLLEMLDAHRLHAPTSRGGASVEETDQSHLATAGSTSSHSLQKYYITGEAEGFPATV
estrogen receptor subtype beta, sequence (Q92731 whole entry): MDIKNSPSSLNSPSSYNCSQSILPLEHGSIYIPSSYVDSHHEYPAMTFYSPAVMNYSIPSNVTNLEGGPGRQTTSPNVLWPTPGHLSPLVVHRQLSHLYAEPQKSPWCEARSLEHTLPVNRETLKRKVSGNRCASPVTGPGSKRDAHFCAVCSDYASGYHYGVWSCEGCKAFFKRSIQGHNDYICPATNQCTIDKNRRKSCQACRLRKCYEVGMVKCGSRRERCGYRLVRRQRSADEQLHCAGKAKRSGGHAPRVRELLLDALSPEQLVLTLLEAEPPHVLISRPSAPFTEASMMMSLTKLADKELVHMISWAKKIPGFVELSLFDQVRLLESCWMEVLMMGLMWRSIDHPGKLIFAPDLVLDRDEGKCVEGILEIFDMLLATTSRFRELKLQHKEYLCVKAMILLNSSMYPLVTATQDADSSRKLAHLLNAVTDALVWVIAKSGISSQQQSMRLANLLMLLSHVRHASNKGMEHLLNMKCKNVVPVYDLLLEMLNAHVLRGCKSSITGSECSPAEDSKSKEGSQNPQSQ

SMILES	melting point	Bioavailability of 1 in Rat (% F) [1, 5] [% F]	further results
CC/C(=C(\c1ccc(/C=C/C(=O)O)cc1)c1ccc(OC(=O)CN(C)C)cc1)c1ccccc1 (as salt: salt) [Compound 23, (2E)-3-[4-((1Z)-1-{4-[(N,N-dimethylglycyl)oxy]phenyl}-2-phenylbut-1-enyl)phenyl]prop-2-enoic acid]	206 to 208 °C	–	–
CC/C(=C(\c1ccc(/C=C/C(=O)O)cc1)c1ccc(OC(=O)c2cccs2)cc1)c1ccccc1 (as salt: salt) [Compound 25, (2E)-3-[4-((1Z)-2-phenyl-1-{4-[(thien-2-ylcarbonyl)oxy]phenyl}but-1-enyl)phenyl]prop-2-enoic acid]	175 to 176 °C	–	–
CC/C(=C(\c1ccc(/C=C/C(=O)O)cc1)c1ccc(OC(=O)CCC(F)(F)F)cc1)c1ccccc1 (as salt: salt) [Compound 27, (2E)-3-[4-((1Z)-2-phenyl-1-{4-[(4,4,4-trifluorobutanoyl)oxy]phenyl}but-1-enyl)phenyl]prop-2-enoic acid]	162 to 163 °C	–	–
CC/C(=C(/c1ccc(O)cc1)c1ccc(/C=C/C(=O)O)cc1)c1ccccc1 [Compound 1, (2E)-3-{4-[(1Z)-1-(4-Hydroxyphenyl)-2-phenylbut-1-enyl]phenyl}prop-2-enoic acid]	–	5.7	Bioavailability of 1 in Rat (% F) ([1]; oral, solution in aqueous 20% hydroxypropoylcyclodextrin): 29.0 % F; Bioavailability of 1 in Rat [1, 6]: 5.7 % F; solubility thermodynamic [2]: 23 µg/mL (≈ 62.1 µM); binding affinity to estrogen receptor subtype alpha, % that of estradiol [3]: 2%; binding affinity to estrogen receptor subtype beta, % that of estradiol [4]: 1%
CCC(=O)Oc1ccc(/C(=C(/CC)c2ccccc2)c2ccc(/C=C/C(=O)O)cc2)cc1 [Compound 7, (2E)-3-(4-{(1Z)-2-phenyl-1-[4-(propionyloxy)phenyl]but-1-enyl}phenyl)prop-2-enoic acid]	155 to 157 °C and 158 to 160 °C	86.6	Bioavailability of 1 in Rat [1, 6]: 86.6 % F; solubility thermodynamic [2]: 61 µg/mL (≈ 143 µM)
CC/C(=C(\c1ccc(/C=C/C(=O)O)cc1)c1ccc(OC(=O)c2ccccc2)cc1)c1ccccc1 [Compound 18, (2E)-3-(4-{(1Z)-1-[4-(benzoyloxy)phenyl]-2-phenylbut-1-enyl}phenyl)prop-2-enoic acid]	–	12.3	–
CC/C(=C(\c1ccc(/C=C/C(=O)O)cc1)c1ccc(OC(C)=O)cc1)c1ccccc1 [Compound 20, (2E)-3-(4-{(1Z)-1-[4-(acetyloxy)phenyl]-2-phenylbut-1-enyl}phenyl)prop-2-enoic acid]	–	13.5	Bioavailability of 1 in Rat [1, 6]: 13.5 % F; solubility thermodynamic [2]: 129 µg/mL (≈ 313 µM)
CCCC(=O)Oc1ccc(/C(=C(/CC)c2ccccc2)c2ccc(/C=C/C(=O)O)cc2)cc1 [Compound 21, (2E)-3-(4-{(1Z)-1-[4-(butyryloxy)phenyl]-2-phenylbut-1-enyl}phenyl)prop-2-enoic acid]	–	18.2	Bioavailability of 1 in Rat [1, 6]: 18.2 % F; solubility thermodynamic [2]: 21 µg/mL (≈ 47.7 µM)
CC/C(=C(\c1ccc(/C=C/C(=O)O)cc1)c1ccc(OC(=O)c2ccco2)cc1)c1ccccc1 [Compound 22, (2E)-3-(4-{(1Z)-1-[4-(2-Furoyloxy)phenyl]-2-phenyl-1-butenyl}phenyl)-2-propenoic acid]	170 to 172 °C	16.9	–
CC/C(=C(\c1ccc(/C=C/C(=O)O)cc1)c1ccc(OC(=O)CN(C)C)cc1)c1ccccc1 [Compound 23, (2E)-3-[4-((1Z)-1-{4-[(N,N-dimethylglycyl)oxy]phenyl}-2-phenylbut-1-enyl)phenyl]prop-2-enoic acid]	–	38.3	Bioavailability of 1 in Rat [1, 6]: 38.3 % F; solubility thermodynamic [2]: 15 µg/mL (≈ 32.9 µM)
CC/C(=C(\c1ccc(/C=C/C(=O)O)cc1)c1ccc(OC(=O)c2ccno2)cc1)c1ccccc1 [Compound 24, (2E)-3-[4-((1Z)-1-{4-[(5-Isoxazolylcarbonyl)oxy]phenyl}-2-phenyl-1-butenyl)phenyl]-2-propenoic acid]	141 to 142 °C	43.2	–
CC/C(=C(\c1ccc(/C=C/C(=O)O)cc1)c1ccc(OC(=O)c2cccs2)cc1)c1ccccc1 [Compound 25, (2E)-3-[4-((1Z)-2-phenyl-1-{4-[(thien-2-ylcarbonyl)oxy]phenyl}but-1-enyl)phenyl]prop-2-enoic acid]	–	50.9	–
CC/C(=C(\c1ccc(/C=C/C(=O)O)cc1)c1ccc(OC(=O)CCOC)cc1)c1ccccc1 [Compound 26]	190 to 191 °C	52.4	–
CC/C(=C(\c1ccc(/C=C/C(=O)O)cc1)c1ccc(OC(=O)CCC(F)(F)F)cc1)c1ccccc1 [Compound 27, (2E)-3-[4-((1Z)-2-phenyl-1-{4-[(4,4,4-trifluorobutanoyl)oxy]phenyl}but-1-enyl)phenyl]prop-2-enoic acid]	–	28.9	–
CC/C(=C(\c1ccc(/C=C/C(=O)O)cc1)c1ccc(OP(=O)(O)O)cc1)c1ccccc1 [Compound 35, (2E)-3-(4-{(1Z)-2-Phenyl-1-[4-(phosphonooxy)phenyl]-1-butenyl}phenyl)-2-propenoic acid]	181 to 183 °C	37.0	Bioavailability of 1 in Rat [1, 6]: 37.0 % F; solubility thermodynamic [2]: > 1000 µg/mL

More lines, main results first:

melting point	Bioavailability of 1 in Rat (% F) [1, 5] [% F]	SMILES	further results
–	3.5	CC/C(=C(\c1ccc(/C=C/C(=O)O)cc1)c1ccc(OC(=O)C(C)(C)C)cc1)c1ccccc1 [Compound 28, (2E)-3-[4-((1Z)-1-{4-[(2,2-dimethylpropanoyl)oxy]phenyl}-2-phenylbut-1-enyl)phenyl]prop-2-enoic acid]	–
–	3.3	CC/C(=C(\c1ccc(/C=C/C(=O)O)cc1)c1ccc(OC(=O)C2CCCCC2)cc1)c1ccccc1 [Compound 29, (2E)-3-[4-((1Z)-1-{4-[(cyclohexylcarbonyl)oxy]phenyl}-2-phenylbut-1-enyl)phenyl]prop-2-enoic acid]	–
–	21.3	CC/C(=C(\c1ccc(/C=C/C(=O)O)cc1)c1ccc(OC(=O)CN2CCOCC2)cc1)c1ccccc1 [Compound 31, (2E)-3-[4-((1Z)-1-{4-[(morpholin-4-ylacetyl)oxy]phenyl}-2-phenylbut-1-enyl)phenyl]prop-2-enoic acid]	–
–	13.9	CC/C(=C(\c1ccc(/C=C/C(=O)O)cc1)c1ccc(OC(=O)CN2CCCCC2)cc1)c1ccccc1 [Compound 33, (2E)-3-[4-((1Z)-2-phenyl-1-{4-[(piperidin-1-ylacetyl)oxy]phenyl}but-1-enyl)phenyl]prop-2-enoic acid]	–
–	13.4	CC/C(=C(\c1ccc(/C=C/C(=O)O)cc1)c1ccc(OC(=O)CN2CCN(C)CC2)cc1)c1ccccc1 [Compound 34, (2E)-3-{4-[(1Z)-1-(4-{[(4-methylpiperazin-1-yl)acetyl]oxy}phenyl)-2-phenylbut-1-enyl]phenyl}prop-2-enoic acid]	–
135 to 136 °C	43.2	CCOC(=O)Oc1ccc(/C(=C(/CC)c2ccccc2)c2ccc(/C=C/C(=O)O)cc2)cc1 [Compound 37, (2E)-3-[4-((1Z)-1-{4-[(Ethoxycarbonyl)oxy]phenyl}-2-phenyl-1-butenyl)phenyl]-2-propenoic acid]	–
140 to 142 °C	21.9	CC/C(=C(\c1ccc(/C=C/C(=O)O)cc1)c1ccc(OC(=O)OC)cc1)c1ccccc1 [Compound 40, (2E)-3-[4-((1Z)-1-{4-[(Methoxycarbonyl)oxy]phenyl}-2-phenyl-1-butenyl)phenyl]-2-propenoic acid]	–
